Assay results published in patent publication US7927612B2, “Combinations and methods for treating neoplasms” (priority 2000, dated 2011).
Several values for one entry are separate records, joined by “and”; a condition that tells them apart may be missing. Identical values can stand only once.

How the values were obtained:
[1] = system: liver cancer cells; test: Treatment efficacy study in mice with implanted liver cancer cells: tumor volume (Example 9, Tables 14-16); format: in vivo, Kuiking mice; set-up: Everage TV1 (average tumor volume): unit not given here; conditions: control group
Procedure: Kuiking mice were used in this study. The average weight of the mice used in this study is about 23 grams. About 10^3 liver cancer cells were implanted into the left army pit of mice. […] The mice were divided into three groups: control group, therapy group and immunotherapy group. In the control group, 0.1 ml of Ara-C in normal saline was injected to the tumor via intro-tumor injection. […]

[2] = Body weight of tumor-bearing mice in the treatment efficacy study (Example 9, Tables 14-16); format: in vivo, Kuiking mice; set-up: unit: g; conditions: control group
Procedure: Kuiking mice were used in this study. The average weight of the mice used in this study is about 23 grams. About 10^3 liver cancer cells were implanted into the left army pit of mice. At about 10 days, the small tumor grew under the mice skin. At about 15 days, the tumor grew to about 1 cm size. The mice were divided into three groups: control group, therapy group and immunotherapy group. In the control group, 0.1 ml of Ara-C in normal saline was injected to the tumor via intro-tumor injection.
In the immunotherapy group, 0.1 ml of the combination of ethanol, H2O2, anticancer drug AraC, hemotoxilin and TNP in normal saline was injected to the tumor via intro-tumor injection.

[3] = Date (start), individual mice No. 1-10

Substance: Cytidine Arabinosyladenine [Ara-C]
- Everage TV1 (average tumor volume) ([1]; 1 d): 0.8
- TV (tumor volume) ([1]; 1 d, individual mice): 1.3*0.7*0.5 = 0.455 Scm and 1.1*0.8*0.6 = 0.528 Scm and 1.4*1.1*1 = 1.54 Scm and 1*0.9*0.6 = 0.54 Scm and 1.1*1*0.7 = 0.77 Scm and 1.3*0.9*0.8 = 0.94 Scm and 1*0.7*0.7 = 0.49 Scm and 1.1*0.7*0.6 = 0.462 Scm
- Everage TV1 (average tumor volume) ([1]; 2 d): 1.33
- TV (tumor volume) ([1]; 2 d, individual mice): 1.2*1.1*0.8 = 1.1 Scm and 1.2*0.9*0.5 = 0.54 Scm and 1.4*1.2*0.8 = 1.34 Scm and 1*0.8*0.6 = 0.48 Scm and 1.3*0.6*0.5 = 0.39 Scm and 1.3*1*0.8 = 1.04 Scm and 1.3*0.8*0.7 = 0.73 Scm and 1.2*1.1*0.8 = 1.06 Scm and 1.2*1*0.8 = 0.96 Scm and 1.3*0.9*0.6 = 0.702 Scm
- Everage TV1 (average tumor volume) ([1]; 3 d): 1.47
- TV (tumor volume) ([1]; 3 d, individual mice): 1.1*1.2*0.7 = 0.924 Scm and 1.5*1.2*1 = 1.8 Scm (2×) and 1.2*0.9*0.6 = 0.648 Scm and 1.2*1.1*0.8 = 1.1 Scm and 1.2*1*0.6 = 0.72 Scm and 1.4*1.1*0.7 = 1.08 Scm and 1.4*1.2*0.8 = 1.34 Scm and 1*1*0.6 = 0.6 Scm
- Everage TV1 (average tumor volume) ([1]; 4 d): 1.47
- TV (tumor volume) ([1]; 4 d, individual mice): 1.3*1.4*1.1 = 2 Scm and 1.5*1*0.6 = 0.99 Scm and 1.6*1.4*1 = 2.24 Scm and 1.2*0.8*0.5 = 1 Scm and 1.6*1.3*1.4 = 2.9 Scm and 1.4*0.8*0.6 = 0.67 Scm and 1.5*1.2*1.1 = 1.98 Scm and 1.2*1.1*0.8 = 1.06 Scm and 1.3*1.1*0.8 = 1.14 Scm and 1*1*0.7 = 0.7 Scm
- Everage TV1 (average tumor volume) ([1]; 5 d): 1.65
- TV (tumor volume) ([1]; 5 d, individual mice): 1.4*1*1 = 1.4 Scm and 1.5*1.3*1 = 1.95 Scm and 1.5*1.1*0.7 = 1.16 Scm and 1.7*1.3*0.9 = 1.98 Scm and 1.2*1.2*0.7 = 1 Scm and 1.5*1.3*0.9 = 1.75 Scm and 1.7*1.4*1 = 2.38 Scm and 1.4*1.4*1 = 1.96 Scm and 1.6*1*0.8 = 1.28 Scm
- Everage TV1 (average tumor volume) ([1]; 6 d): 1.87
- TV (tumor volume) ([1]; 6 d, individual mice): 1.3*1.1*0.8 = 1.14 Scm and 1.6*1.3*1.1 = 2.28 Scm and 1.2*1*0.5 = 0.6 Scm and 1.8*1.2*1 = 2.16 Scm and 1.3*1.5*0.6 = 1.17 Scm and 1.6*1.4*1 = 2.24 Scm and 1.9*1.6*1.2 = 3.6 Scm and 1.5*1.4*1.1 = 2.31 Scm and 1.4*1.2*0.8 = 1.34 Scm
- Everage TV1 (average tumor volume) ([1]; 7 d): 2.59
- TV (tumor volume) ([1]; 7 d, individual mice): 1.5*0.8*0.7 = 0.84 Scm and 1.8*1.6*1.5 = 4.32 Scm and 1.4*0.9*0.6 = 0.76 Scm and 1.9*1.4*1.2 = 3.19 Scm and 1.5*1.3*0.9 = 1.76 Scm and 1.9*1.5*1 = 2.85 Scm and 1.8*1.5*1.5 = 4 Scm and 1.5*1.4*1.3 = 2.73 Scm and 1.5*1.6*1.2 = 2.88 Scm
- Everage TV1 (average tumor volume) ([1]; 8 d): 2.73
- TV (tumor volume) ([1]; 8 d, individual mice): 1.3*0.9*0.7 = 0.819 Scm and 1.4*1.5*1.3 = 2.73 Scm and 1.8*1.2*1.2 = 2.59 Scm and 1.2*0.7*0.6 = 0.5 Scm and 1.5*1.5*1.2 = 2.7 Scm and 1.5*1.6*1.4 = 3.36 Scm and 1.5*1.3*1.2 = 2.34 Scm and 1.5*1.4*1.2 = 2.52 Scm and 1.5*1.2*1.1 = 1.98 Scm
- Everage TV1 (average tumor volume) ([1]; 9 d): 3.12
- TV (tumor volume) ([1]; 9 d, individual mice): 1.5*1.2*0.9 = 1.62 Scm and 1.8*1.8*1.8 = 5.8 Scm and 1.9*1.5*1.4 = 3.99 Scm and 1.6*1.1*0.7 = 1.2 Scm and 2.1*1.5*1.4 = 4.4 Scm and 1.3*1.4*1.1 = 2 Scm and 1.7*1.4*1.1 = 2.62 Scm and 1.4*1.6*1.4 = 3.14 Scm and 1.8*1.4*1.3 = 3.28 Scm
- Everage TV1 (average tumor volume) ([1]; Date (start)): 0.343
- TV (tumor volume) [1, 3]: 0.8*0.6*0.4 = 0.192 Scm and 1*0.5*0.3 = 0.15 Scm and 1.3*0.9*0.6 = 0.7 Scm and 1*0.7*0.5 = 0.35 Scm and 0.9*0.7*0.5 = 0.32 Scm and 0.8*0.6*0.5 = 0.24 Scm and 1*0.9*0.6 = 0.54 Scm and 1*0.8*0.5 = 0.4 Scm and 0.7*0.7*0.6 = 0.294 Scm and 0.7*0.7*0.5 = 0.245 Scm
- Weight ([2]; 1 d, individual mice): 25 (3×) and 20 and 21 and 17 and 25.5 and 18 and 23.5 and 27
- Weight ([2]; 2 d, individual mice): 24 (2×) and 19 (2×) and 16.5 and 17 and 23.8 and 17.5 and 21 and 25
- Weight ([2]; 3 d, individual mice): 22 (4×) and 17.5 and 17 and 15 and 16.5 and 20 and 23.5
- Weight ([2]; 4 d, individual mice): 26.5 and 24 (2×) and 28.2 and 22.8 and 15.8 and 16.5 and 26 and 20 and 28.5
- Weight ([2]; 5 d, individual mice): 24.5 and 30 and 28.5 and 24 (2×) and 28 and 19 and 26.5 and 21.5
- Weight ([2]; 6 d, individual mice): 23.5 and 31 and 29.5 and 24.5 and 28 (2×) and 24 and 19 and 22
- Weight ([2]; 7 d, individual mice): 24 (2×) and 32.5 and 29 and 24.5 and 28.5 and 19.5 and 28 and 21
- Weight ([2]; 8 d, individual mice): 24.5 (3×) and 33 and 24 and 28.5 (2×) and 20 and 21
- Weight ([2]; 9 d, individual mice): 24.5 (2×) and 33.5 and 23.5 and 28.5 (2×) and 21 and 29 and 23
- Weight [2, 3]: 23.5 and 24 and 22.5 and 18 and 18.5 and 14 and 23 and 14.5 and 20 and 26
